Experimental data: US7691965B2, “Helical synthetic peptides that stimulate cellular cholesterol efflux” (The Regents of the University of California, priority 2002, dated 2010)
Where a SMILES comes first, the peptide text is derived from it.

Key:
[1] = Relative lipid binding affinity by surface balance technique (monolayer exclusion pressure); assay type: physicochemical; conditions: for Monolayer exclusion pressure: surface balance technique
Text: (§1) Relative Lipid Binding Affinity, Hydrophobicity, and Amphiphilicity of Synthetic Peptides—In some experiments, the relative lipid binding affinity of unique peptides was quantified using a surface balance technique (Gillotte, K L. et al., J. Biol. Chem., 274:2021-2028 (1999)). For routine analyses, a turbid solution of dimyristoylphosphatidylcholine (DMPC) was used to assess the relative capacity of synthetic peptides to solubilize phospholipid as described (Palgunachari, M. N. et al., Arterioscler. Thromb. Vasc. Biol., 16:328-338 (1996); McLean, L. R. and Hagaman, K. A., Biochim. Biophys. Acta, 1167:289-295 (1993)). The DMPC was used at a final concentration of 0.08 mg/ml in 10 mM Tris-saline (pH 7.4). The final weight ratio of peptides relative to DMPC was 1:1. The absorbance (400 nm) of samples was monitored continuously over a period of 30 min at 25° C. Hydrophobicity of helical peptides was calculated using the consensus scale (Eisenberg D., Annu. Rev. Biochem., 53:593-623 (1984)). The hydrophobic moment (kcal/mol) of synthetic peptides, which is a measure of helix amphiphilicity, was calculated as described by Eisenberg et al. (Eisenberg, D. et al., Nature, 299:371-374 (1982)).

[2] = molecular target: T1, ABCA1 (Mus musculus, UniProt P41233); test: Cellular cholesterol efflux from [3H]cholesterol-labeled J774 macrophages with and without cAMP analog; assay type: cell-based; set-up: endogenous in cells; host or cells: J774 macrophages treated with a cAMP analog (CPT-cAMP or 8-bromo-cAMP); conditions: for ABCA1-dependent cholesterol efflux (result in words): lipid-free acceptor, J774 macrophages with vs without cAMP analog
T1 sequence (P41233 whole entry): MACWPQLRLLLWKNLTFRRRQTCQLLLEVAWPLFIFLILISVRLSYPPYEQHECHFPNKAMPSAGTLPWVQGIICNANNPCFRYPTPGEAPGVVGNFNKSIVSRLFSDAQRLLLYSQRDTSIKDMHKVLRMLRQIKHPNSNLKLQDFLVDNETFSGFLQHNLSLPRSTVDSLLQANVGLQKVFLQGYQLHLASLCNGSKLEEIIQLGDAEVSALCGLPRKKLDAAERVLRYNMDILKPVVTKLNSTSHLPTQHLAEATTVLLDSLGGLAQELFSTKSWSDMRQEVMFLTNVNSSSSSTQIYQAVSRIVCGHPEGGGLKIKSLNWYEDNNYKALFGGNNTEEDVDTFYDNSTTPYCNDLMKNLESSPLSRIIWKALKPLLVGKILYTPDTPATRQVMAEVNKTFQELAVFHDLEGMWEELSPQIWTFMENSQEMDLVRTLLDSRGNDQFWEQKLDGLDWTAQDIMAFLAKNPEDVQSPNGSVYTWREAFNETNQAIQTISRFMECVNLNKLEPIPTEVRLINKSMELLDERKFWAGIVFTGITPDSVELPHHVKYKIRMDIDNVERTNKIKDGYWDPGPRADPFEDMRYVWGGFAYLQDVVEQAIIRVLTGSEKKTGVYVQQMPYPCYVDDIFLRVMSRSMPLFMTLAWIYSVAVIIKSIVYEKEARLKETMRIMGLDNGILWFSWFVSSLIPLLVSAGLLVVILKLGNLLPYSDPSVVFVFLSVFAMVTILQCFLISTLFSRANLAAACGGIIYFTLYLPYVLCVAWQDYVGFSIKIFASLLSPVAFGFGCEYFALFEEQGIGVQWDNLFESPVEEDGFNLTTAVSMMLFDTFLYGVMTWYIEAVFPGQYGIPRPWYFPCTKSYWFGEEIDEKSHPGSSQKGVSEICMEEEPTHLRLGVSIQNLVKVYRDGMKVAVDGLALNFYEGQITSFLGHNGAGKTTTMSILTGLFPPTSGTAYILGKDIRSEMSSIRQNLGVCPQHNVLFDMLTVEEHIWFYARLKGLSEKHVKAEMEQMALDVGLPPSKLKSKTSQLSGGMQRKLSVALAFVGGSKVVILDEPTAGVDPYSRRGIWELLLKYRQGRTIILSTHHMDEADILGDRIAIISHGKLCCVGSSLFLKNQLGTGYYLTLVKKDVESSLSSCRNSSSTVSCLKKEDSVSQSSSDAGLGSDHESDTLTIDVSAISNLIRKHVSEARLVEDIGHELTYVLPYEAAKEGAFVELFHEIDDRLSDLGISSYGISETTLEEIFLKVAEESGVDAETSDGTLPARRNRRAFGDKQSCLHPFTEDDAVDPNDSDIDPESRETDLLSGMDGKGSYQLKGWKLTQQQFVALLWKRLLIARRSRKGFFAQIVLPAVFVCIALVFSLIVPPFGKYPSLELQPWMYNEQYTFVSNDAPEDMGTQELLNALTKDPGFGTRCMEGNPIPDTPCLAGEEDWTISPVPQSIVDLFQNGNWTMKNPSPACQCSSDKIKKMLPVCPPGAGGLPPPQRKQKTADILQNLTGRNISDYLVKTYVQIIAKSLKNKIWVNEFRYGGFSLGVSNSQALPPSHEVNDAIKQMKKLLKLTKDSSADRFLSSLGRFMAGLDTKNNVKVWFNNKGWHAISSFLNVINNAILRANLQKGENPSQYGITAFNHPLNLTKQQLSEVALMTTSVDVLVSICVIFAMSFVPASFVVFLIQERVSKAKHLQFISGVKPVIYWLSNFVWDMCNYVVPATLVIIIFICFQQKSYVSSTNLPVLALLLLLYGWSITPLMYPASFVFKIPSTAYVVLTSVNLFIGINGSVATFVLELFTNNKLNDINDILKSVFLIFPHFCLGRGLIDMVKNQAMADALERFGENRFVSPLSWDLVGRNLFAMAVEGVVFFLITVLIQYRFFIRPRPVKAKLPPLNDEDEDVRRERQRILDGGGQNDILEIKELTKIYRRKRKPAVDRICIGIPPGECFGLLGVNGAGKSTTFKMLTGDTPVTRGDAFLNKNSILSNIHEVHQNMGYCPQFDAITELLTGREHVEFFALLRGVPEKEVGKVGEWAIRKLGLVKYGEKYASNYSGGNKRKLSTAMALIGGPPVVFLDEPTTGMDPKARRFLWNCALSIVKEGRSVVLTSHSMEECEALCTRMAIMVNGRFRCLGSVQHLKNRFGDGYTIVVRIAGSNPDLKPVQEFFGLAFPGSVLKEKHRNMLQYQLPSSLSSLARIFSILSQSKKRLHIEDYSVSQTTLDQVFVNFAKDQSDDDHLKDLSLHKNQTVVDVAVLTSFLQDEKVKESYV
Text: Suitable cholesterol efflux assays are described in, e.g., Bielicki, J. K and Oda, M. N., Biochemistry, 41:2089-2096 (2002); Jia, Z. et al., Biochem. Biophys. Res. Common., 297:206-213 (2002). In some embodiments, a polypeptide known to mediate cholesterol efflux (e.g., helix 9/10 of Apo A-I) is used to screen for additional mediators of cholesterol efflux in a cell based assay. For example, cell lines in which cholesterol efflux can be enhanced using a cAMP analog that up-regulates ABCA1 protein expression (e.g., J774 macrophages) can conveniently be used to assess the ability of an Apo A-I, Apo A-II, Apo A-IV, Apo E, Apo C-I, Apo C-II, Apo C-III, or Serum Amyloid A peptide to mediate cholesterol efflux. The cells are incubated with labeled cholesterol (e.g., [^3H]cholesterol) under conditions appropriate for cholesterol uptake by the cells. cAMP or cAMP analogs (e.g., CPT-cAMP) is incubated with the cells for a suitable time before the initiation of cellular cholesterol efflux, i.e., prior to contacting the cells with helix 9/10 of Apo A-I or the test compound. Measurement of labeled cholesterol appearing in the medium is used to determine the cholesterol efflux mediating activity of the test compound.
Cellular Cholesterol Efflux Protocol—J774 macrophages were used to assess the cholesterol efflux properties of synthetic amphipathic α-helical peptides (Bielicki, J. K and Oda, M. N., Biochemistry, 41:2089-2096 (2002); Jia, Z. et al., Biochem. Biophys. Res. Common., 297:206-213 (2002)). This cell line was chosen because cholesterol efflux can be enhanced using a cAMP analog that up-regulates ABCA1 protein expression. The cells were seeded onto 24-well culture plates and labeled for 48 h with [^3H]cholesterol in RPMI 1640 supplemented with 1% fetal bovine serum. The cAMP analog CPT-cAMP was added (0.3 mM, final concentration) to the cells at least 12 h before the initiation of cellular cholesterol efflux. Synthetic peptides in lipid-free form were added to cells in serum-free RPMI. The lipid-free form of full-length recombinant apoA-I was used as a positive control to define apparent ABCA1-dependent cholesterol efflux in the presence and absence of cAMP stimulation. Efflux results were expressed as a percentage of the initial cellular [^3H] appearing in the medium as a function of time subtracting the background efflux obtained using serum-free medium alone.

[3] = molecular target: T1, ABCA1; test: ABCA1 stabilization: immunoblot of ABCA1 protein in J774 macrophage membranes after cAMP withdrawal; assay type: cell-based; set-up: J774 macrophages were used to assess relative ABCA1 protein levels in the presence and absence of synthetic peptides; endogenous in cells; host or cells: J774 macrophages treated with a cAMP analog (CPT-cAMP or 8-bromo-cAMP); conditions: 20 μg/ml peptide, 6 h without cAMP, J774 macrophages
Experimental: J774 macrophages were incubated (18 h) with 0.5 mM 8-bromo-cAMP in medium containing 0.1% bovine serum albumin to up-regulate ABCA1 protein expression. Washed cells were subsequently exposed for 6 h to bovine serum albumin medium with (+) or without (−) 8-bromo-cAMP and the indicated synthetic peptides (20 μg/ml). None refers to no peptides. The cellular membrane content of ABCA1 protein was measured by immunoblot analysis.
ABCA1 Stabilization—J774 macrophages were used to assess relative ABCA1 protein levels in the presence and absence of synthetic peptides. Cells were grown in 10% fetal bovine serum, extensively rinsed, and incubated (18 h) with Dulbecco's modified Eagle's medium containing 0.1% bovine serum albumin plus the cAMP analog 8-bromo-cAMP. Cells were next exposed to synthetic peptides or serum-free medium in the absence of the cAMP stimulus to evaluate whether ABCA1 protein was stabilized or degraded. Relative levels of ABCA1 protein were assessed by immunoblot analysis of cell membranes (Oram, J. F. et al., J. Biol. Chem., 278:52379-52385 (2003)). ABCA1 was visualized using an enhanced chemiluminescence detection assay.
To assess ABCA1 stabilization, J774 macrophages were treated with a cAMP analog to up-regulate ABCA1 protein expression and then incubated for 6 h without cAMP. In the absence of inducer, ABCA1 protein is rapidly degraded in these cells (FIG. 9). […] Thus, it appears that the helical combinations that stimulate cholesterol efflux also stabilize the ABCA1 transporter.

[4] = DMPC clearance assay (solubilization of a turbid phospholipid solution); assay type: physicochemical
Text: as §1, with “Peptides-In” for “Peptides—In”, “[…].,” for “Hagaman, K. A.,”

[5] = molecular target: T1, ABCA1; test: ABCA1 stabilization: immunoblot of ABCA1 protein in J774 macrophage membranes after cAMP withdrawal; assay type: cell-based; set-up: J774 macrophages were used to assess relative ABCA1 protein levels in the presence and absence of synthetic peptides; endogenous in cells; host or cells: J774 macrophages treated with a cAMP analog (CPT-cAMP or 8-bromo-cAMP); conditions: concentration dependence studies, J774 macrophages

| Molecule | lipid binding affinity (surface balance technique), result in words [1] | Monolayer exclusion pressure [1] [dynes/cm] | cholesterol efflux relative to that obtained with full-length apoA-I ([2]; 75 μg/ml, cAMP-treated macrophages) [%] | ABCA1-dependent cholesterol efflux (result in words) [2] | ABCA1 stabilization (result in words) [3] | DMPC clearance [4] | ABCA1-dependent cholesterol efflux (result in words) ([2]; listed as Helix 10) | ABCA1-dependent cholesterol efflux (result in words) ([2]; listed as helix 10) | ABCA1 stabilization (result in words) ([3]; listed as Helix 10) | concentration at which cholesterol efflux reached maximal levels ([2]; cAMP-treated J774 cells) [µg/mL] | lowest concentration that prevented ABCA1 degradation [5] [µg/mL] |
| --- | --- | --- | --- | --- | --- | --- | --- | --- | --- | --- | --- |
| CC(=O)N[C@@H](CC(C)C)C(=O)N[C@@H](CCCCN)C(=O)N[C@@H](CC(C)C)C(=O)N[C@@H](CC(C)C)C(=O)N[C@@H](CC(=O)O)C(=O)N[C@@H](CC(N)=O)C(=O)N[C@@H](Cc1c[nH]c2ccccc12)C(=O)N[C@@H](CC(=O)O)C(=O)N[C@@H](CO)C(=O)N[C@H](C(=O)N[C@H](C(=O)N[C@@H](CO)C(=O)N[C@H](C(=O)N[C@@H](Cc1ccccc1)C(=O)N[C@@H](CO)C(=O)N[C@@H](CCCCN)C(=O)N[C@@H](CC(C)C)C(=O)N[C@@H](CCCNC(=N)N)C(=O)N[C@@H](CCC(=O)O)C(=O)N[C@@H](CCC(N)=O)C(=O)N[C@@H](CC(C)C)C(=O)NCC(N)=O)[C@@H](C)O)[C@@H](C)O)C(C)C [Helical peptide 1] (Ac-LKLLDNWDSVTSTFSKLREQLG-NH2) | identical | 30 | 15 | failed to stimulate ABCA1-dependent cholesterol efflux | failed to prevent ABCA1 degradation |  |  |  |  |  |  |
| CC(=O)N1CCC[C@H]1C(=O)N[C@@H](C)C(=O)N[C@@H](CC(C)C)C(=O)N[C@@H](CCC(=O)O)C(=O)N[C@@H](CC(=O)O)C(=O)N[C@@H](CC(C)C)C(=O)N[C@@H](CCCNC(=N)N)C(=O)N[C@@H](CCC(N)=O)C(=O)NCC(=O)N[C@@H](CC(C)C)C(=O)N[C@@H](CC(C)C)C(=O)N[C@@H](CC(C)C)C(=O)N[C@@H](CCCCN)C(=O)N[C@@H](CC(C)C)C(=O)N[C@@H](CC(C)C)C(=O)N[C@@H](CC(=O)O)C(=O)N[C@@H](CC(N)=O)C(=O)N[C@@H](Cc1c[nH]c2ccccc12)C(=O)N[C@@H](CC(=O)O)C(=O)N[C@@H](CO)C(=O)N[C@H](C(=O)N[C@H](C(=O)N[C@@H](CO)C(=O)N[C@H](C(=O)N[C@@H](Cc1ccccc1)C(=O)N[C@@H](CO)C(=O)N[C@@H](CCCCN)C(=O)N[C@@H](CC(C)C)C(=O)N[C@@H](CCCNC(=N)N)C(=O)N[C@@H](CCC(=O)O)C(=O)N[C@@H](CCC(N)=O)C(=O)N[C@@H](CC(C)C)C(=O)NCC(N)=O)[C@@H](C)O)[C@@H](C)O)C(C)C [Helical peptide 9/1] (Ac-PALEDLRQGLLLKLLDNWDSVTSTFSKLREQLG-NH2) |  |  |  | stimulated cholesterol efflux in an ABCA1-dependent manner | retained ABCA1 stabilization activity | + |  |  |  |  |  |
| CC(=O)N1CCC[C@H]1C(=O)N[C@H](C(=O)N[C@@H](CC(C)C)C(=O)N[C@@H](CCC(=O)O)C(=O)N[C@@H](CO)C(=O)N[C@@H](Cc1ccccc1)C(=O)N[C@@H](CCCCN)C(=O)N[C@H](C(=O)N[C@@H](CO)C(=O)N[C@@H](Cc1ccccc1)C(=O)N[C@@H](CC(C)C)C(=O)N[C@@H](CO)C(=O)N[C@@H](C)C(=O)N[C@@H](CC(C)C)C(=O)N[C@@H](CCC(=O)O)C(=O)N[C@@H](CCC(=O)O)C(=O)N[C@@H](Cc1ccc(O)cc1)C(=O)N[C@H](C(=O)N[C@@H](CCCCN)C(=O)N[C@@H](CCCCN)C(=O)N[C@@H](CC(C)C)C(=O)N[C@@H](CC(N)=O)C(N)=O)[C@@H](C)O)C(C)C)C(C)C [Helical peptide 10] (Ac-PVLESFKVSFLSALEEYTKKLN-NH2) |  | 28 |  |  | failed to prevent ABCA1 degradation |  | does not mediate ABCA1-dependent cholesterol efflux | poor mediator of cellular cholesterol efflux | nor does it stabilize ABCA1 |  |  |
| full-length apoA-I: full-length recombinant His-tagged apolipoprotein A-I from a bacterial expression system, positive control [reference compound] | identical |  |  | increased dramatically upon the up-regulation of the ABCA1 transporter |  |  |  |  |  | 10 | ~10 |
